Assay results published in article doi:10.64898/2025.12.13.694138, “Structural insights into xyloglucan recognition by an ABC transporter from a Gram-positive, thermophilic bacterium” (bioRxiv, 2025).
Where two headings read alike, the source gives them in different places.

Tests used:
Test in all cases: ITC ([…] °C); DSC ΔTm […] °C
Assay type in all cases: binding
Athe_2052 [1] = biological target: T1, Athe_2052 (Caldicellulosiruptor bescii, UniProt B9MLD9)
T1 construct: Athe_2052 without its signal peptide, N-terminal hexa-histidine tag

Athe_2052 [2] = biological target: T1, Athe_2052; remark: listed apart in the source
Athe_2052 [3] = biological target: T1, Athe_2052; remark: listed apart in the source

T1 sequence (B9MLD9 entry or part of it): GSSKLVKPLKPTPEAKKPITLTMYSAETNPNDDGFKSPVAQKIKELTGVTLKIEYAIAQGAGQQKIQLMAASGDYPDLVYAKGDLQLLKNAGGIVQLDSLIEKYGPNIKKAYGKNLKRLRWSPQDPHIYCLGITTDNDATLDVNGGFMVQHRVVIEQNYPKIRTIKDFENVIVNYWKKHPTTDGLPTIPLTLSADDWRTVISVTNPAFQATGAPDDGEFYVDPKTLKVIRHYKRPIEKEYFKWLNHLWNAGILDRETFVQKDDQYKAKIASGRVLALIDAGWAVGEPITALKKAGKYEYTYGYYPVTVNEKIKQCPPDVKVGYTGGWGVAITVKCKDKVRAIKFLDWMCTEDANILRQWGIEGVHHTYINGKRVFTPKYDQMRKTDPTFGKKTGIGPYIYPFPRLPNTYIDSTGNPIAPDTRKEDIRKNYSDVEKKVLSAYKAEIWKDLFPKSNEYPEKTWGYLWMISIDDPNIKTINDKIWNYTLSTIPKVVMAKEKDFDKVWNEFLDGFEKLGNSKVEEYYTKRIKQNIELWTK

## OC[C@H]1O[C@@H](O[C@H]2[C@H](O)[C@@H](O)[C@H](O[C@H]3[C@H](O)[C@@H](O)[C@H](O[C@H]4[C@H](O)[C@@H](O)C(O)O[C@@H]4CO)O[C@@H]3CO)O[C@@H]2CO)[C@H](O)[C@@H](O)[C@@H]1O (stereo partly drawn) [Cellotetraose]
Athe_2052 [1]
  Kd: 214 nM

## OC[C@H]1O[C@@H](O[C@H]2[C@H](O)[C@@H](O)[C@H](O[C@H]3[C@H](O)[C@@H](O)C(O)O[C@@H]3CO)O[C@@H]2CO)[C@H](O)[C@@H](O)[C@@H]1O (stereo partly drawn) [Cellotriose]
Athe_2052 [2]
  Kd: 247 nM

## OC[C@H]1OC(O)[C@H](O)[C@@H](O)[C@@H]1O[C@@H]1O[C@H](CO[C@H]2OC[C@@H](O)[C@H](O)[C@H]2O)[C@@H](O[C@@H]2O[C@H](CO[C@H]3OC[C@@H](O)[C@H](O)[C@H]3O)[C@@H](O[C@@H]3O[C@H](CO[C@H]4OC[C@@H](O)[C@H](O)[C@H]4O)[C@@H](O)[C@H](O)[C@H]3O)[C@H](O)[C@H]2O)[C@H](O)[C@H]1O (stereo partly drawn) [XXXG, xyloglucan heptasaccharide]
Athe_2052 [3]
  Kd: 14 nM
